Test results: US11000033B2, “Ketone or oxime compound, and herbicide” (NISSAN CHEMICAL CORPORATION, priority 2014, dated 2021)

Key:
Format in all cases: in vivo
[1] = test system: Echinochloa crus-galli var. crus-galli; assay: Test Example 5: herbicidal effect by foliage application, plastic box (symbol H); settings: 320 g/ha, 3 weeks after application
How it was run: (§1)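 Sowing in sterilized diluvial soil, 14 days' greenhouse growth at 25° C. to 30° C., then uniform small-sprayer foliar application of aqueous emulsion dilution; plants scored three weeks afterwards.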

[2] = test system: Abutilon theophrasti; assay: Test Example 4: herbicidal effect by soil treatment (symbol M); settings: for M: Abutilon theophrasti, herbicidal effect grade: 320 g/ha
How it was run: (§2)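 Seeds were sown in sterilized diluvial soil, covered with about 1.5 cm of soil, and the soil surface was sprayed with a water-diluted emulsion of the compound at a predetermined rate. Plants grew in a greenhouse at 25° C. to 30° C.; effects were scored visually 3 weeks after application.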

[3] = test system: Echinochloa oryzacola Vasing.; assay: Test Example 1: herbicidal activity, application before weed generation in submerged conditions (symbol A); settings: application herbicide amount 320 g/ha
How it was run: (§3)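 Compound emulsion was diluted to a set herbicide amount and applied to the water surface on the sowing day, into submerged (4 cm) alluvial-soil pots sown with mixed weed seeds and transplanted 2.5-leaf rice. Pots were held in a 25–30 °C greenhouse, and weeds were scored 0–5 by herbicidal ratio after 3 weeks.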

[4] = test system: rapeseed; assay: Test Example 5: effect on crop by foliage application, plastic box (symbol g); settings: 320 g/ha, 3 weeks after application
How it was run: (§4)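 Crop and weed seeds sown in spots in sterilized diluvial soil in plastic boxes and covered with about 1.5 cm soil. Plants raised in a greenhouse at 25° C. to 30° C. for foliar application.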

[5] = test system: Abutilon theophrasti; assay: Test Example 5: herbicidal effect by foliage application, plastic box (symbol M); settings: 320 g/ha, 3 weeks after application
How it was run: as §1

[6] = test system: Digitaria ciliaris; assay: Test Example 4: herbicidal effect by soil treatment (symbol F); settings: for F: Digitaria ciliaris, herbicidal effect grade: 320 g/ha
How it was run: as §2

[7] = test system: Monochoria vaginalis; assay: Test Example 2: herbicidal activity, application during weed generation in submerged conditions (symbol C); settings: Table 23; application herbicide amount 320 g/ha; grade 0-5 by criteria of Test Example 1
How it was run: (§5)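 Seeds sown in flooded alluvial soil (4 cm water) were grown in a 25-30° C greenhouse. At the one- to two-leaf stage, diluted emulsion of compound was applied to the water surface at a predetermined rate. Effect was scored 3 weeks later.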

[8] = test system: Monochoria vaginalis; assay: Test Example 1: herbicidal activity, application before weed generation in submerged conditions (symbol C); settings: application herbicide amount 320 g/ha
How it was run: as §3

[9] = test system: beet; assay: Test Example 5: effect on crop by foliage application, plastic box (symbol f); settings: 320 g/ha, 3 weeks after application
How it was run: as §4

[10] = test system: Avena fatua; assay: Test Example 4: herbicidal effect by soil treatment (symbol I); settings: for I: Avena fatua, herbicidal effect grade: 320 g/ha
How it was run: as §2

[11] = test system: rice; assay: Test Example 4: effect on crop by soil treatment (symbol b); settings: for b: directly sowed rice plant, effect grade on crop: 320 g/ha
How it was run: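 Crop seeds, among them rice, wheat, beet and rapeseed, were sown in sterilized diluvial soil and covered with about 1.5 cm of soil. Boxes were kept in a greenhouse at 25° C. to 30° C. for plant growth.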

[12] = test system: Scirpus juncoides; assay: Test Example 2: herbicidal activity, application during weed generation in submerged conditions (symbol B); settings: Table 23; application herbicide amount 320 g/ha; grade 0-5 by criteria of Test Example 1
How it was run: as §5

[13] = test system: Amaranthus retroflexus; assay: Test Example 5: herbicidal effect by foliage application, plastic box (symbol N); settings: 320 g/ha, 3 weeks after application
How it was run: as §1

[14] = test system: Alopecurus myosuroides; assay: Test Example 4: herbicidal effect by soil treatment (symbol J); settings: for J: Alopecurus myosuroides, herbicidal effect grade: 320 g/ha
How it was run: as §2

[15] = test system: Echinochloa oryzacola Vasing.; assay: Test Example 2: herbicidal activity, application during weed generation in submerged conditions (symbol A); settings: Table 23; application herbicide amount 320 g/ha; grade 0-5 by criteria of Test Example 1
How it was run: as §5

[16] = application herbicide amount 320 g/ha

SMILES | H: Echinochloa crus-galli var. crus-galli, herbicidal effect (criteria 0-5) [1] | M: Abutilon theophrasti, herbicidal effect grade [2] | Herbicidal effect grade, A: Echinochloa oryzacola Vasing. [3] | g: rapeseed, effect on crop (criteria 0-5) [4] | M: Abutilon theophrasti, herbicidal effect (criteria 0-5) [5] | F: Digitaria ciliaris, herbicidal effect grade [6] | Herbicidal effect grade, C: Monochoria vaginalis [7] | Herbicidal effect grade, C: Monochoria vaginalis [8] | f: beet, effect on crop (criteria 0-5) [9] | I: Avena fatua, herbicidal effect grade [10] | b: directly sowed rice plant, effect grade on crop [11] | Herbicidal effect grade, B: Scirpus juncoides [12] | N: Amaranthus retroflexus, herbicidal effect (criteria 0-5) [13] | J: Alopecurus myosuroides, herbicidal effect grade [14] | Herbicidal effect grade, A: Echinochloa oryzacola Vasing. [15] | H: Echinochloa crus-galli var. crus-galli, herbicidal effect grade [1] | g: rapeseed, effect on crop grade [4] | M: Abutilon theophrasti, herbicidal effect grade [5] | f: beet, effect on crop grade [9] | N: Amaranthus retroflexus, herbicidal effect grade [13] | also measured
CON=C(C)CC1CC(OC(=O)COCC(F)(F)F)=C(c2c(C)cc(C)cc2C)C1=O (stereo not drawn) [1-092] | 5 (Herbicidal ratio of 90% or more (almost completely withered)) | 3 (Herbicidal ratio of 40% or higher and lower than 70%) | 5 (Herbicidal ratio of 90% or more (almost completely withered)) | 4 (Herbicidal ratio of 70% or higher and lower than 90%) | 3 (Herbicidal ratio of 40% or higher and lower than 70%) | 5 (Herbicidal ratio of 90% or more (almost completely withered)) | 0 (Herbicidal ratio of 5% or lower (almost no effect)) | 0 (Herbicidal ratio of 5% or lower (almost no effect)) | 0 (Herbicidal ratio of 5% or lower (almost no effect)) | 2 (Herbicidal ratio of 20% or higher and lower than 40%) | 5 (Herbicidal ratio of 90% or more (almost completely withered)) | 4 (Herbicidal ratio of 70% or higher and lower than 90%) | 3 (Herbicidal ratio of 40% or higher and lower than 70%) | 4 (Herbicidal ratio of 70% or higher and lower than 90%) | 5 (Herbicidal ratio of 90% or more (almost completely withered)) | – | – | – | – | – | –
CON=C(C)C(C)C1CC(O)=C(c2c(C)cc(C)cc2C)C1=O (stereo not drawn) [1-032] | – | – | 5 (Herbicidal ratio of 90% or more (almost completely withered)) | – | – | – | 3 (Herbicidal ratio of 40% or higher and lower than 70%) | 3 (Herbicidal ratio of 40% or higher and lower than 70%) | – | – | – | 4 (Herbicidal ratio of 70% or higher and lower than 90%) | – | – | 5 (Herbicidal ratio of 90% or more (almost completely withered)) | 5 (Herbicidal ratio of 90% or more (almost completely withered)) | 4 (Herbicidal ratio of 70% or higher and lower than 90%) | 4 (Herbicidal ratio of 70% or higher and lower than 90%) | 3 (Herbicidal ratio of 40% or higher and lower than 70%) | 3 (Herbicidal ratio of 40% or higher and lower than 70%) | M (Abutilon theophrasti) herbicidal effect grade [2, 16]: 4 (Herbicidal ratio of 70% or higher and lower than 90%); F (Digitaria ciliaris) herbicidal effect grade [6, 16]: 5 (Herbicidal ratio of 90% or more (almost completely withered)); I (Avena fatua) herbicidal effect grade [10, 16]: 5 (Herbicidal ratio of 90% or more (almost completely withered)); b (directly sowed rice plant) effect on crop grade [11, 16]: 5 (Herbicidal ratio of 90% or more (almost completely withered)); J (Alopecurus myosuroides) herbicidal effect grade [14, 16]: 5 (Herbicidal ratio of 90% or more (almost completely withered))
CON=C(CC1CC(O)=C(c2c(C)cc(Br)cc2C)C1=O)C(C)C (stereo not drawn) [9-001] | – | – | 4 (Herbicidal ratio of 70% or higher and lower than 90%) | – | – | – | 0 (Herbicidal ratio of 5% or lower (almost no effect)) | 0 (Herbicidal ratio of 5% or lower (almost no effect)) | – | – | – | 0 (Herbicidal ratio of 5% or lower (almost no effect)) | – | – | 4 (Herbicidal ratio of 70% or higher and lower than 90%) | 5 (Herbicidal ratio of 90% or more (almost completely withered)) | 2 (Herbicidal ratio of 20% or higher and lower than 40%) | 0 (Herbicidal ratio of 5% or lower (almost no effect)) | 0 (Herbicidal ratio of 5% or lower (almost no effect)) | 0 (Herbicidal ratio of 5% or lower (almost no effect)) | Herbicidal effect grade, M: Abutilon theophrasti [2, 16]: 0 (Herbicidal ratio of 5% or lower (almost no effect)); Herbicidal effect grade, F: Digitaria ciliaris [6, 16]: 4 (Herbicidal ratio of 70% or higher and lower than 90%); Herbicidal effect grade, I: Avena fatua [10, 16]: 0 (Herbicidal ratio of 5% or lower (almost no effect)); Effect on crop grade, b: directly sowed rice plant [11, 16]: 4 (Herbicidal ratio of 70% or higher and lower than 90%); Herbicidal effect grade, J: Alopecurus myosuroides [14, 16]: 3 (Herbicidal ratio of 40% or higher and lower than 70%)
CC(CC1CC(O)=C(c2c(C)cc(C)cc2C)C1=O)=NOc1ccccc1 (stereo not drawn) [1-057] | – | – | 5 (Herbicidal ratio of 90% or more (almost completely withered)) | – | – | – | 0 (Herbicidal ratio of 5% or lower (almost no effect)) | 2 (Herbicidal ratio of 20% or higher and lower than 40%) | – | – | – | 0 (Herbicidal ratio of 5% or lower (almost no effect)) | – | – | 2 (Herbicidal ratio of 20% or higher and lower than 40%) | 4 (Herbicidal ratio of 70% or higher and lower than 90%) | 4 (Herbicidal ratio of 70% or higher and lower than 90%) | 1 (Herbicidal ratio of 5% or higher and lower than 20%) | 1 (Herbicidal ratio of 5% or higher and lower than 20%) | 0 (Herbicidal ratio of 5% or lower (almost no effect)) | M (Abutilon theophrasti) herbicidal effect grade [2, 16]: 3 (Herbicidal ratio of 40% or higher and lower than 70%); F (Digitaria ciliaris) herbicidal effect grade [6, 16]: 4 (Herbicidal ratio of 70% or higher and lower than 90%); I (Avena fatua) herbicidal effect grade [10, 16]: 0 (Herbicidal ratio of 5% or lower (almost no effect)); b (directly sowed rice plant) effect on crop grade [11, 16]: 5 (Herbicidal ratio of 90% or more (almost completely withered)); J (Alopecurus myosuroides) herbicidal effect grade [14, 16]: 4 (Herbicidal ratio of 70% or higher and lower than 90%)
CON=C(C)CC1CC(OC(=O)COc2ccc(I)cc2)=C(c2c(C)cc(C)cc2C)C1=O (stereo not drawn) [1-082] | 5 (Herbicidal ratio of 90% or more (almost completely withered)) | 5 (Herbicidal ratio of 90% or more (almost completely withered)) | 5 (Herbicidal ratio of 90% or more (almost completely withered)) | 4 (Herbicidal ratio of 70% or higher and lower than 90%) | 4 (Herbicidal ratio of 70% or higher and lower than 90%) | 5 (Herbicidal ratio of 90% or more (almost completely withered)) | 3 (Herbicidal ratio of 40% or higher and lower than 70%) | 2 (Herbicidal ratio of 20% or higher and lower than 40%) | 0 (Herbicidal ratio of 5% or lower (almost no effect)) | 3 (Herbicidal ratio of 40% or higher and lower than 70%) | 5 (Herbicidal ratio of 90% or more (almost completely withered)) | 5 (Herbicidal ratio of 90% or more (almost completely withered)) | 0 (Herbicidal ratio of 5% or lower (almost no effect)) | 5 (Herbicidal ratio of 90% or more (almost completely withered)) | 5 (Herbicidal ratio of 90% or more (almost completely withered)) | – | – | – | – | – | –
